Values after ≈ are worked out from the molar mass of the structure shown.
Legend:
[1] = system: Human immunodeficiency virus 1; assay: Antiviral activity against HIV1 3B infected in human H9 cells after 4 days by p24 antigen ELISA assay; type: functional, organism-based; conditions: Human immunodeficiency virus 1, 3B, H9, 96 h
[2] = Therapeutic index, ratio of IC50 for human H9 cells to EC50 for HIV1 3B; type: cell-based; conditions: for selectivity ratio: H9 cells, read-out: Ratio IC50/EC50; for Ratio IC50/EC50: h9
[3] = system: H9; assay: Cytotoxicity against human H9 cells; type: cell-based

Structure (SMILES) | EC50 [1] [µg/mL] | selectivity ratio [2] | IC50 [3] [µg/mL] | Ratio IC50/EC50 [2]
O=c1ccn([C@@H]2O[C@H](CO)[C@@H](O)[C@H]2O)c(=O)[nH]1 [URIDINE] | 10 (≈ 40.9 µM) | > 10 |  | 
O=C(O[C@H](Cc1ccc(O)c(O)c1)C(=O)O)C1=Cc2cc(O)c(O)cc2[C@@H](c2ccc(O)c(O)c2)C1C(=O)O[C@H](Cc1ccc(O)c(O)c1)C(=O)O (stereo partly drawn) | 15 (≈ 20.9 µM) |  | 50 (≈ 69.6 µM) | 3.3
O=C(O[C@H](Cc1ccc(O)c(O)c1)C(=O)[O-])C1=Cc2cc(O)c(O)cc2[C@@H](c2ccc(O)c(O)c2)C1C(=O)O[C@H](Cc1ccc(O)c(O)c1)C(=O)O.[K+] (stereo partly drawn) | 4 |  | 50 | 12.5
O=C(O[C@H](Cc1ccc(O)c(O)c1)C(=O)[O-])C1=Cc2cc(O)c(O)cc2[C@@H](c2ccc(O)c(O)c2)C1C(=O)O[C@H](Cc1ccc(O)c(O)c1)C(=O)[O-].[K+].[K+] (stereo partly drawn) | 16 |  | 50 | 3.1
O=C(O[C@H](Cc1ccc(O)c(O)c1)C(=O)[O-])C1=Cc2cc(O)c(O[C@@H]3O[C@H](CO)[C@@H](O)[C@H](O)[C@H]3O)cc2[C@@H](c2ccc(O)c(O)c2)C1C(=O)O[C@H](Cc1ccc(O)c(O)c1)C(=O)[O-].[K+].[Na+] (stereo partly drawn) | 30 | 2 | 60 | 
O=C(O[C@H](Cc1ccc(O)c(O)c1)C(=O)[O-])C1=Cc2cc(O)c(O)cc2[C@@H](c2ccc(O)c(O)c2)C1C(=O)O[C@H](Cc1ccc(O)c(O)c1)C(=O)[O-].[Na+].[Na+] (stereo partly drawn) | 2.8 |  | 55 | 19.6
O=C(O[C@H](Cc1ccc(O)c(O)c1)C(=O)[O-])C1=Cc2cc(O)c(O)cc2[C@H](c2ccc(O)c(O)c2)[C@H]1C(=O)O[C@H](Cc1ccc(O)c(O)c1)C(=O)O.[K+] | 1.5 |  | 50 | 33.3
O=C(O[C@H](Cc1ccc(O)c(O)c1)C(=O)O)C1=Cc2cc(O)c(O)cc2[C@H](c2ccc(O)c(O)c2)[C@H]1C(=O)O[C@H](Cc1ccc(O)c(O)c1)C(=O)O | 13 (≈ 18.1 µM) |  | 45 (≈ 62.6 µM) | 3.5

— ChEMBL document CHEMBL1159230, “Anti-AIDS agents, 18. Sodium and potassium salts of caffeic acid tetramers from Arnebia euchroma as anti-HIV agents” (J Nat Prod, 1995)
